{
  "source": "patent US8906898B1",
  "about": "“Solid forms of ceftolozane” (Calixa Therapeutics, Inc., priority 2013, dated 2014)",
  "key": {"[1]": {"experiment": "Stability of HPLC sample solution in refrigerated autosampler", "type": "physicochemical", "conditions": "1 mg/mL in 50 mM sodium perchlorate monohydrate, pH 4.00; 4±2° C.", "protocol": "(§1) Ceftolozane sulfate samples are prepared at a concentration of 1 mg/mL in diluent (50 mM sodium perchlorate monohydrate, pH 4.00). The system suitability standard (SST) is prepared at a concentration of 1 mg/mL of ceftolozane sulfate containing specified impurities in diluent (50 mM sodium perchlorate monohydrate, pH 4.00). Ceftolozane samples and SST are stored in a refrigerated autosampler tray at 4±2° C. and the samples are only stable for 5 hours at this condition."}, "[2]": {"experiment": "Ceftolozane precipitation time as function of solution concentration (visual assessment)", "type": "physicochemical", "conditions": "pH 6.9, 2 to 8° C.", "protocol": "Sterile ceftolozane compositions suitable for combination with tazobactam to form a pharmaceutical composition are prepared as a lyophilized powder from the ceftolozane sulfate comprising solid Form 2 by compounding the drug substance with excipients into an aqueous solution, aseptically filtering the solution, lyophilizing the solution, then grinding, sieving and packaging the sterile lyophilized powder. The physical stability of the bulk solution at varying concentrations was examined and concentrations up to 150 mg ceftolozane free base/g solution were found suitable. All the registration batches were prepared using 150 mg/g ceftolozane concentration in the compounding solution and this concentration is proposed for commercial manufacturing. The resulting ceftolozane composition solubility was assessed in a concentration range proposed for manufacturing, in the presence of excipients intended for use in the ceftolozane formulation for use in the pharmaceutical composition. […] Samples were adjusted to pH 6.9, held at 2 to 8° C., and visually assessed for any precipitation."}, "[3]": {"experiment": "Comparative ceftolozane solvent stability test (purity by HPLC over 6 days)", "type": "physicochemical", "excerpt": "This stability study was to evaluate stability and purity of ceftolozane sulfate in different solvent systems.\nSample 1 was a solvent system used to prepare crystalline ceftolozane sulfate from a mixture of isopropanol and water, as described in Example 2b (in the absence of ethanol). Sample 2 was solvent system used to obtain crystalline ceftolozane sulfate prepared according to the procedure of U.S. Pat. No. 7,129,232, wherein the crystals were precipitated from a mixture of ethanol and water.\nSample 1 and sample 2 were maintained for 6 days (as described in Example 2a, with continuous stirring). The purity of ceftolozane in the samples in each solvent system was measured by HPLC at day 0, day 3, and day 6.\nas §1\nEach sample is prepared in singlet and injected twice. Only impurities >LOD (0.008% Area) are integrated. The peak area percentage for each impurity >LOD is taken directly from the chromatogram. The mean % area of each peak is calculated and the absolute difference of any peak in the two replicates cannot be >0.030%. The purity and related substances are determined based on relative area % of each peak with respect to the total peak area of the sample. The total impurities are the sum of the individual impurities >LOD."}, "[4]": {"experiment": "Water content by Karl Fischer volumetric titration with Stromboli oven", "type": "physicochemical", "conditions": "samples equilibrated at 130° C., mean of triplicate", "protocol": "Water content of crystalline ceftolozane sulfate (prepared according to Example 2a as Form 1) was determined using a Mettler Toledo Karl Fischer volumetric titrator V30 that was connected to a Mettler Toledo Stromboli oven sample changer. AquaStar CombiTitrant 5 (EMD; Cat. No. 1.88005.1045; Lot No. 51096) was used as the titrant and the AquaStar Combi-Methanol (EMD; Cat. No 1.88009.1045; Lot No 53046) was used as the solvent. For data processing, the LabX software version 3.1.1.0 was employed. The Hydranal Water Standard for KF-Oven (Fluka; Cat. No. 34693; Lot No. SZBB010AV) that is expected to contain 5% water was weighed accurately in duplicate at or very close to 200 mg. The crystalline ceftolozane sulfate (15-18 mg) was weighed accurately in triplicate in separate 20 mL Stromboli sample vials. The vials were sealed with aluminum seals and rubber caps. A blank vial was prepared by sealing an empty 20-mL Stromboli vial with the aluminum seal and the rubber cap. The blank vial was used to determine the background moisture in air inside the vial. […] The KF titrator passed the accuracy test as the mean of the duplicate readings for the water standard was between the acceptance range of 4.80-5.20%. Water content results for crystalline ceftolozane sulfate derived from the triplicate weighings were recorded and the mean was reported. […]"}, "[5]": {"experiment": "Gravimetric dynamic vapour sorption (moisture sorption/desorption, hygroscopicity)", "type": "physicochemical", "conditions": "25° C.", "protocol": "Gravimetric dynamic vapor sorption data (FIG. 5) was obtained using a SMS DVS Intrinsic moisture sorption analyser, controlled by DVS Intrinsic Control software v1.0.0.30. The sample temperature was maintained at 25° C. by the instrument controls. The humidity was controlled by mixing streams of dry and wet nitrogen. The relative humidity was measured by a calibrated Rotronic probe, located near the sample. The weight change of the sample as a function of % RH was constantly monitored by the microbalance (accuracy ±0.005 mg). Approximately 40 mg of sample was placed in a tared mesh stainless basket under ambient conditions. Weight reference was established at the start of an experiment. Moisture sorption isotherm parameters were described as below: [table] The moisture sorption/desorption property of crystalline cefolozane sulfate form 2 is depicted in FIG. 5. A reversible hysteresis associated with around 23% w/w water between 0% and 90% relative humidity (RH) was observed. The DVS isotherm in FIG. 5 is consistent with the presence of two crystalline forms that can be interconverted as function of relative humidity. The presence of ceftolozane sulfate solid Form 1 and ceftolozane sulfate solid Form 2 in the sample tested to obtain the DVS isotherm in FIG. 5 was confirmed by a variable humidity XRPD (VH-XRPD) measurement, based on the XRPD diffraction angles disclosed for Form 1 and Form 2 of ceftolozane sulfate (as disclosed herein). Referring to DVS the isotherm plot in FIG. 5, the lower curve corresponds to ceftolozane sulfate in solid Form 2, and the upper curve is corresponds to ceftolozane sulfate in solid Form 1. The Y-axis of the DVS plot is change in mass. The X-axis of DVS plot refers to the percent relative humidity (RH) of the sample. Reference point 10 in FIG. 5 is the starting point of Form 2 in DVS experiment. The lower portion of the curve in FIG. 5 was obtained by measuring the change in mass of a ceftolozane sulfate sample in solid Form 2 while increasing relative humidity (RH) in the sample, starting at reference point 10 of the lower curve from reference point 10 (Form 2) and moving toward reference point 20 (Form 1). Based on the data collected, the ceftolozane sulfate in the sample converted from Form 2 to Form 1 when the sample was exposed to conditions between 50% RH (reference point 12) and 70% RH (reference point 15). Referring again to the lower curve in FIG. 5, ceftolozane sulfate in Form 1 is present in the sample from 70% RH to reference point 20, where the sample is ceftolozane sulfate is in crystalline Form 1. Referring to the upper curve in FIG. 5, from reference point 20 to reference point 30, the ceftolozane sulfate in the sample material remains as solid Form 1. From reference point 30 to around 20% RH (reference point 35 on the upper curve), the crystalline form of ceftolozane sulfate in the material transforms from Form 1 to Form 2. As the relative humidity of the sample was dropped below about 20% on the upper curve between reference point 30 and reference point 40 (0% RH), the ceftolozane sulfate became more amorphous, with some residual Form 2 remaining at reference point 40. […] Hygroscopicity of ceftolozane sulfate, Form 2 was assessed using the SMS DVS Intrinsic moisture sorption analyzer equipped with a calibrated Rotronic probe. […]"}, "[6]": {"type": "physicochemical", "protocol": "Thermo Gravimetric Analysis (TGA) experiments were performed on a TA Instruments Discovery Series TGA. The calibration for temperature was carried out using certified indium. Typically, 3-15 mg of a sample was flattened into sealed aluminum pans. Data was acquired for samples with and without a pinhole. For samples with a pinhole, once crimped and sealed, the auto-sampler punched the lid of the sample with its internal puncher right before analysis of the sample. Samples were heated at 20° C./min from 30° C. to 400° C. Dry nitrogen was purged into the system during the experiment at a rate of 50 ml/min. The software used to control the instrument was TRIOS Explorer Software v5.3.0.75. TRIOS software v2.40.1838 or v2.04.04563 was used for data analysis.\nThermogravimetric analysis (TGA) and differential scanning calorimetry (DSC) thermograms are shown in FIG. 3 and FIG. 4, respectively. […] The subsequent exotherm in the thermogram is indicative of decompostion that is consistent with the observation in the melting point experiment."}, "[7]": {"experiment": "Melting point experiment (SRS Optimelt), thermal decomposition", "type": "physicochemical", "conditions": "scan from 100° C. to 400° C.; decomposed prior to melting", "protocol": "Melting point experiment was performed for ceftolozane sulfate form 2 using the SRS Optimelt melting point apparatus. SRS-certified vanillin and phenacetin were used to verify the system performance. The temperature scan from 100° C. to 400° C. was performed for ceftolozane sulfate. The material decomposed prior to melting. The decomposition, as indicated by the distinct change in color, appeared to commence at about 170° C."}},
  "note": "Where a name gives a salt, the structure may show the parent alone.",
  "data": [
    {"smiles": "Cn1c(N)c(NC(=O)NCCN)c[n+]1CC1=C(C(=O)O)N2C(=O)[C@@H](NC(=O)/C(=N\\OC(C)(C)C(=O)O)c3nsc(N)n3)[C@H]2SC1", "note": "[Ceftolozane sulfate, 5-amino-4-{[(2-aminoethyl)carbamoyl]amino}-2-{[(6R,7R)-7-({(2Z)-2-(5-amino-1,2,4-thiadiazol-3-yl)-2-[(1-carboxy-1-methylethoxy)imino]acetyl}amino)-2-carboxy-8-oxo-5-thia-1-azabicyclo[4.2.0]oct-2-en-3-yl]methyl}-1-methyl-1H-pyrazolium monosulfate]", "values": [
      {"measurement": "time the sample solution is stable", "setting": "[1]", "value": 5, "unit": "h"}
    ]},
    {"smiles": "Cn1c(N)c(NC(=O)NCCN)c[n+]1CC1=C(C(=O)[O-])N2C(=O)[C@@H](NC(=O)/C(=N\\OC(C)(C)C(=O)O)c3nsc(N)n3)[C@H]2SC1", "note": "[Ceftolozane, (6R,7R)-3-[(5-amino-4-{[(2-aminoethyl)carbamoyl]amino}-1-methyl-1H-pyrazol-2-ium-2-yl)methyl]-7-({(2Z)-2-(5-amino-1,2,4-thiadiazol-3-yl)-2-[(1-carboxy-1-methylethoxy)imino]acetyl}amino)-8-oxo-5-thia-1-azabicyclo[4.2.0]oct-2-ene-2-carboxylate]", "values": [
      {"measurement": "Time to Precipitate", "setting": "[2]; ceftolozane sulfate 149 mg/g (free base 130 mg/g), with excipients", "value": ">24", "unit": "hours^a"},
      {"measurement": "Time to Precipitate", "setting": "[2]; ceftolozane sulfate 172 mg/g (free base 150 mg/g), with excipients", "value": ">48", "unit": "h"},
      {"measurement": "Time to Precipitate", "setting": "[2]; ceftolozane sulfate 178 mg/g (free base 156 mg/g), last observation at 24 hour", "value": ">24", "unit": "hours^1)"},
      {"measurement": "Time to Precipitate", "setting": "[2]; ceftolozane sulfate 189 mg/g (free base 165 mg/g), with excipients", "value": "<18", "unit": "h"},
      {"measurement": "Time to Precipitate", "setting": "[2]; ceftolozane sulfate 200 mg/g (free base 174 mg/g), with excipients", "value": 2, "unit": "h"},
      {"measurement": "purity of ceftolozane after 6-day stability test", "setting": "[3]; aqueous ethanol solution, methods of U.S. Pat. No. 7,129,232", "value": "about 68%"},
      {"measurement": "purity of ceftolozane at start of 6-day stability test", "setting": "[3]; aqueous ethanol solution, precipitation per U.S. Pat. No. 7,129,232", "value": "about 97%"},
      {"measurement": "purity of ceftolozane after 6-day stability test", "setting": "[3]; process using isopropanol (Example 2a), liquid phase", "value": "about 82%"}
    ]},
    {"smiles": "Cn1c(N)c(NC(=O)NCCN)c[n+]1CC1=C(C(=O)O)N2C(=O)[C@@H](NC(=O)/C(=N\\OC(C)(C)C(=O)O)c3nsc(N)n3)[C@H]2SC1.O=S(=O)([O-])O", "note": "[Example 1, 7β-[(Z)-2-(5-amino-1,2,4-thiadiazol-3-yl)-2-(1-carboxy-1-methylethoxyimino)acetamido]-3-{3-amino-4-[3-(2-aminoethyl)ureido]-2-methyl-1-pyrazolio}methyl-3-cephem-4-carboxylic acid hydrogen sulfate]", "values": [
      {"measurement": "water content by weight", "setting": "[4]", "value": "about 26.3%"}
    ]},
    {"smiles": "Cn1c(N)c(NC(=O)NCCN)c[n+]1CC1=C(C(=O)O)N2C(=O)[C@@H](NC(=O)/C(=N\\OC(C)(C)C(=O)O)c3nsc(N)n3)[C@H]2SC1", "note": "[ceftolozane sulfate Form 1]", "values": [
      {"measurement": "relative humidity down to which Form 1 transforms to Form 2", "setting": "[5]; decreasing RH, from reference point 30", "value": "around 20 % RH"}
    ]},
    {"smiles": "Cn1c(N)c(NC(=O)NCCN)c[n+]1CC1=C(C(=O)O)N2C(=O)[C@@H](NC(=O)/C(=N\\OC(C)(C)C(=O)O)c3nsc(N)n3)[C@H]2SC1", "note": "[ceftolozane sulfate Form 2]", "values": [
      {"measurement": "temperature beyond which degradation likely occurs", "setting": "[6]", "value": "> 181", "unit": "°C"},
      {"measurement": "temperature at which decomposition commenced (change in color)", "setting": "[7]", "value": "about 170 °C"},
      {"measurement": "hygroscopicity", "setting": "[5]; RH 0 to 90%", "value": "hygroscopic"},
      {"measurement": "total uptake of water", "setting": "[5]; at 90% relative humidity, RH 0 to 90%", "value": 23, "unit": "%"},
      {"measurement": "reversible hysteresis, water", "setting": "[5]; between 0% and 90% relative humidity", "value": "around 23 % w/w"},
      {"measurement": "relative humidity below which the solid became more amorphous", "setting": "[5]; decreasing RH to 0%, some residual Form 2", "value": "below 20%"}
    ]}
  ]
}
